Drawing on US20250223259A1, “PROTEASE INHIBITORS FOR TREATING OR PREVENTING CORONAVIRUS INFECTION” (Merck Sharp & Dohme LLC, priority 2022, published 2025), this text covers IC50 for 22 compounds.

The target of the test is SARS2 coronavirus 3CL protease (Severe acute respiratory syndrome coronavirus 2 (2019-nCoV) (SARS-CoV-2), UniProt P0DTD1). Briefly: SARS2 Coronavirus 3CL Protease Assay (FRET). The class given is biochemical. Particulars: SARS2 3CLPro FRET assay; 5 nM enzyme, 30 min pre-incubation with compound, 15 uM peptide substrate, 4 h room temperature.

Structures are written as SMILES.

In general, IC50 refers to the concentration needed to halve the response being measured.

Method: The enzymatic activity of SARS2 coronavirus 3CL protease was determined in a FRET (fluorescence resonance energy transfer)-based assay measuring the cleavage of a peptide substrate by recombinantly expressed and purified enzyme. Cleavage of the peptide SEQ ID NO:1 (CPC Scientific) by SARS2 3CL protease was measured in reaction buffer (50 mM Hepes pH 7.5, 0.01% Triton X-100, 0.01% BSA, 2 mM DTT). SARS2 3CL protease (5 nM final concentration) was pre-incubated with compound for 30 minutes before reaction initiation with peptide substrate (15 uM final concentration). Room temperature reactions (4 h) were quenched by addition of a high dose of inhibitor and read on an appropriate plate reader (excitation wavelength=495 nm, emission wavelength=520 nm). Data were analyzed by a standard 4 parameter fit to determine IC50 values.

With `COC(=O)N[C@H](C(=O)N1CC2(CCCCC2)C[C@H]1C(=O)N[C@@H](CCC(C)(F)F)C(=O)C(=O)NC(C)C)C(C)(C)C` [Example 13, Methyl ((S)-1-((S)-3-(((S)-6,6-difluoro-1-(isopropylamino)-1,2-dioxoheptan-3-yl)carbamoyl)-2-azaspiro[4.5]decan-2-yl)-3,3-dimethyl-1-oxobutan-2-yl)carbamate], the IC50 was 49 nM. As to `COC(=O)N[C@@H](C)C(=O)N1CC2(CCCCC2)C[C@H]1C(=O)N[C@@H](CCC(C)(F)F)C(=O)C(=O)NC1CC1` [Example 14, Methyl ((S)-1-((S)-3-(((S)-1-(cyclopropylamino)-6,6-difluoro-1,2-dioxoheptan-3-yl)carbamoyl)-2-azaspiro[4.5]decan-2-yl)-1-oxopropan-2-yl)carbamate], the IC50 was 69 nM. Next, `CC(C)[C@H](NC(=O)OC(C)(C)C)C(=O)N1CC2(CCCCC2)C[C@H]1C(=O)N[C@@H](CCC(C)(F)F)C(=O)C(=O)NC1CC1` [Example 15, Tert-butyl ((S)-1-((S)-3-(((S)-1-(cyclopropylamino)-6,6-difluoro-1,2-dioxoheptan-3-yl)carbamoyl)-2-azaspiro[4.5]decan-2-yl)-3-methyl-1-oxobutan-2-yl)carbamate]: 113 nM; `COC(=O)N[C@H](C(=O)N1CC2(CCCCC2)C[C@H]1C(=O)N[C@@H](CCC(C)(F)F)C(=O)C(=O)NC1CCCCC1)C(C)(C)C` [Example 16, Methyl ((S)-1-((S)-3-(((S)-1-(cyclohexylamino)-6,6-difluoro-1,2-dioxoheptan-3-yl)carbamoyl)-2-azaspiro[4.5]decan-2-yl)-3,3-dimethyl-1-oxobutan-2-yl)carbamate]: 136 nM. Turning to `COC(=O)N[C@H](C(=O)N1CC2(CCCCC2)C[C@H]1C(=O)N[C@@H](CCC(C)(F)F)C(=O)C(=O)NCCN1CCOCC1)C(C)(C)C` [Example 17, Methyl ((S)-1-((S)-3-(((S)-6,6-difluoro-1-((2-morpholinoethyl)amino)-1,2-dioxoheptan-3-yl)carbamoyl)-2-azaspiro[4.5]decan-2-yl)-3,3-dimethyl-1-oxobutan-2-yl)carbamate], the 50% inhibitory concentration (IC50) stood at 137 nM.

With `COC(=O)N[C@H](C(=O)N1CC2(CCCCC2)C[C@H]1C(=O)N[C@@H](CCC(C)(F)F)C(=O)C(=O)NC(C)(C)C)C(C)(C)C` [Example 18, Methyl ((S)-1-((S)-3-(((S)-1-(tert-butylamino)-6,6-difluoro-1,2-dioxoheptan-3-yl)carbamoyl)-2-azaspiro[4.5]decan-2-yl)-3,3-dimethyl-1-oxobutan-2-yl)carbamate], the concentration for half-maximal inhibition (IC50) was determined as 42 nM.

As to `COC(=O)NC1(C(=O)N2CC3(CCCCC3)C[C@H]2C(=O)N[C@@H](CCC(C)(F)F)C(=O)C(=O)NC2CC2)CC1` [Example 19, Methyl (1-((S)-3-(((S)-1-(cyclopropylamino)-6,6-difluoro-1,2-dioxoheptan-3-yl)carbamoyl)-2-azaspiro[4.5]decane-2-carbonyl)cyclopropyl) carbamate], the half-inhibitory concentration (IC50) was found to be 497 nM. As to `COC(=O)N[C@H](C(=O)N1CCC2(CC2)C[C@H]1C(=O)N[C@@H](CCC(C)(F)F)C(=O)C(N)=O)C(C)(C)C` [Example 20, Methyl ((S)-1-((S)-5-(((S)-1-amino-6,6-difluoro-1,2-dioxoheptan-3-yl)carbamoyl)-6-azaspiro[2.5]octan-6-yl)-3,3-dimethyl-1-oxobutan-2-yl)carbamate], the half-inhibitory concentration (IC50) came out at 7.4 nM.

For the compound `CNC(=O)C(=O)[C@H](CCC(C)(F)F)NC(=O)[C@@H]1CC2(CCN1C(=O)[C@@H](NC(=O)OC)C(C)(C)C)CC2` [Example 21, Methyl ((S)-1-((S)-5-(((S)-6,6-difluoro-1-(methylamino)-1,2-dioxoheptan-3-yl)carbamoyl)-6-azaspiro[2.5]octan-6-yl)-3,3-dimethyl-1-oxobutan-2-yl)carbamate], the IC50 was found to be 6.5 nM.

For the compound `CNC(=O)C(=O)[C@H](CCC(C)(F)F)NC(=O)[C@@H]1C[C@H](C(F)(F)F)CCN1C(=O)[C@@H](NC(=O)OC)C(C)(C)C` [Example 22, Methyl ((S)-1-((2S,4R)-2-(((S)-6,6-difluoro-1-(methylamino)-1,2-dioxoheptan-3-yl)carbamoyl)-4-(trifluoromethyl)piperidin-1-yl)-3,3-dimethyl-1-oxobutan-2-yl)carbamate], the half-maximal inhibitory concentration (IC50) turned out to be 10 nM. Next, `COC(=O)N[C@H](C(=O)N1C[C@@H]2CC(C)(C)[C@@H]2[C@H]1C(=O)N[C@@H](CCC(C)(F)F)C(=O)C(=O)NC1CC1)C(C)(C)C` [Example 25, Methyl ((S)-1-((1R,2S,5R)-2-(((S)-1-(cyclopropylamino)-6,6-difluoro-1,2-dioxoheptan-3-yl)carbamoyl)-7,7-dimethyl-3-azabicyclo[3.2.0]heptan-3-yl)-3,3-dimethyl-1-oxobutan-2-yl)carbamate]: 8.7 nM; `COC(=O)N[C@H](C(=O)N1C[C@@H]2CCCC[C@@H]2C[C@H]1C(=O)N[C@@H](CCC(C)(F)F)C(=O)C(=O)NC1CC1)C(C)(C)C` [Example 26, Methyl ((S)-1-((3S,4aR,8aR)-3-(((S)-1-(cyclopropylamino)-6,6-difluoro-1,2-dioxoheptan-3-yl)carbamoyl)octahydroiso-quinolin-2(1H)-yl)-3,3-dimethyl-1-oxobutan-2-yl)carbamate]: 22 nM. Next, `CNC(=O)C(=O)[C@H](CCC(C)(F)F)NC(=O)[C@@H]1C[C@@H](C(F)(F)F)CN1C(=O)[C@@H](NC(=O)OC)C(C)(C)C` [Example 27, Methyl ((S)-1-((2S,4R)-2-(((S)-6,6-difluoro-1-(methylamino)-1,2-dioxoheptan-3-yl)carbamoyl)-4-(trifluoromethyl)pyrrolidin-1-yl)-3,3-dimethyl-1-oxobutan-2-yl)carbamate]: 14 nM; `COC(=O)N[C@H](C(=O)N1CCC2(CC2)C[C@H]1C(=O)N[C@@H](CCC(C)(F)F)C(=O)C(=O)NC1CC1)C(C)(C)C` [Example 29, Methyl ((S)-1-((S)-5-(((S)-1-(cyclopropylamino)-6,6-difluoro-1,2-dioxoheptan-3-yl)carbamoyl)-6-azaspiro[2.5]octan-6-yl)-3,3-dimethyl-1-oxobutan-2-yl)carbamate]: 7.7 nM; `COC(=O)N[C@H](C(=O)N1C[C@@H]2CCC[C@@H]2[C@H]1C(=O)N[C@@H](CCC(C)(F)F)C(=O)C(=O)NC1CC1)C(C)(C)C` [Example 31, Methyl ((S)-1-((1S,3aR,6aS)-1-(((S)-1-(cyclopropylamino)-6,6-difluoro-1,2-dioxoheptan-3-yl)carbamoyl)hexahydrocyclo-penta[c]pyrrol-2(1H)-yl)-3,3-dimethyl-1-oxobutan-2-yl)carbamate]: 10 nM.

As to `COC(=O)N[C@H](C(=O)N1C[C@H]2[C@H](CCC2(F)F)[C@H]1C(=O)N[C@@H](CCC(C)(F)F)C(=O)C(=O)NC1CC1)C(C)(C)C` [Example 33, Methyl ((S)-1-((1S,3aR,6aS)-1-(((S)-1-(cyclopropylamino)-6,6-difluoro-1,2-dioxoheptan-3-yl)carbamoyl)-4,4-difluorohexahydrocyclopenta[c]pyrrol-2(1H)-yl)-3,3-dimethyl-1-oxobutan-2-yl)carbamate], the half-maximal inhibitory concentration (IC50) was determined as 9.7 nM.

On to `CNC(=O)C(=O)[C@H](CCC(C)(F)F)NC(=O)[C@@H]1[C@H]2CCC(F)(F)[C@H]2CN1C(=O)[C@@H](NC(=O)OC)C(C)(C)C` [Example 35, Methyl ((S)-1-((1S,3aR,6aS)-1-(((S)-6,6-difluoro-1-(methylamino)-1,2-dioxoheptan-3-yl)carbamoyl)-4,4-difluorohexahydrocyclopenta[c]pyrrol-2(1H)-yl)-3,3-dimethyl-1-oxobutan-2-yl)carbamate], for which the IC50 amounted to 8.2 nM.

As to `COC(=O)N[C@H](C(=O)N1C[C@H]2[C@@H]([C@H]1C(=O)N[C@@H](CCC(C)(F)F)C(=O)C(=O)NC1CC1)C(C)(C)C2(C)C)C(C)(C)C` [Example 36, Methyl ((S)-1-((1R,2S,5S)-2-(((S)-1-(cyclopropylamino)-6,6-difluoro-1,2-dioxoheptan-3-yl)carbamoyl)-6,6,7,7-tetramethyl-3-azabicyclo[3.2.0]heptan-3-yl)-3,3-dimethyl-1-oxobutan-2-yl)carbamate], the IC50 amounted to 8.2 nM. Next, `COC(=O)N[C@H](C(=O)N1C[C@H]2[C@@H]([C@H]1C(=O)N[C@@H](CCC(C)(F)F)C(=O)C(=O)NC1CC1)C21CCCC1)C(C)(C)C` [Example 38, Methyl ((S)-1-((1R,2S,5S)-2-(((S)-1-(cyclopropylamino)-6,6-difluoro-1,2-dioxoheptan-3-yl)carbamoyl)-3-azaspiro[bicyclo[3.1.0]hexane-6,1′-cyclopentan]-3-yl)-3,3-dimethyl-1-oxobutan-2-yl)carbamate]: 9.7 nM; `CNC(=O)C(=O)[C@H](CCC(C)(F)F)NC(=O)[C@@H]1[C@@H]2[C@H](CN1C(=O)[C@@H](NC(=O)OC)C(C)(C)C)C2(C)C` [Example 39, Methyl ((S)-1-((1R,2S,5S)-2-(((S)-6,6-difluoro-1-(methylamino)-1,2-dioxoheptan-3-yl)carbamoyl)-6,6-dimethyl-3-azabicyclo[3.1.0]hexan-3-yl)-3,3-dimethyl-1-oxobutan-2-yl)carbamate]: 12 nM; `CNC(=O)C(=O)[C@H](CCC(C)(F)F)NC(=O)[C@@H]1[C@@H]2[C@H](CN1C(=O)[C@@H](NC(=O)OC)C(C)(C)C)C21CCOCC1` [Example 40, Methyl ((S)-1-((1R,2S,5S)-2-(((S)-6,6-difluoro-1-(methylamino)-1,2-dioxoheptan-3-yl)carbamoyl)tetrahydro-3-azaspiro[bicyclo[3.1.0]hexane-6,4′-pyran]-3-yl)-3,3-dimethyl-1-oxobutan-2-yl)carbamate]: 12 nM.

In the case of `COC(=O)N[C@H](C(=O)N1C[C@H]2[C@@H]([C@H]1C(=O)N[C@@H](CCC(C)(F)F)C(=O)C(N)=O)C(C)(C)C2(C)C)C(C)(C)C` [Example 42, Methyl ((S)-1-((1R,2S,5S)-2-(((S)-1-amino-6,6-difluoro-1,2-dioxoheptan-3-yl)carbamoyl)-6,6,7,7-tetramethyl-3-azabicyclo[3.2.0]heptan-3-yl)-3,3-dimethyl-1-oxobutan-2-yl)carbamate], the IC50 was found to be 22 nM.
